Measured values taken from US20090156645A1, “Method for Increasing the Susceptibility of Peptide Deformylase Inhibitors by Using Efflux Pump Inhibitors” (priority 2004, published 2009).
Values after ≈ are worked out from the molar mass of the structure shown. Like-named read-outs stand apart in the source and are kept apart here. Where a SMILES comes first, the peptide text is derived from it. The star is where a group is joined. βNA = c1ccc2cc(N*)ccc2c1

What was measured:
H. influenzae = test: microbe, parasite or virus in culture; format: cell-based, Haemophilus influenzae; details: for effect of inactivation of HI1462 on susceptibility: H. influenzae NB65044; for MIC: Haemophilus influenzae; for effect of insertional inactivation of acrB on susceptibility: laboratory strain NB65044
Procedure: L-broth or L-agar (Difco) is used for routine growth of Escherichia coli (E. coli). Chocolate agar plates (Remel) are used for routine growth of H. influenzae. Brain heart infusion broth (Remel) supplemented with 10 μg/mL of β-NAD (Fluka) and 10 μg/mL hemin/vitamin K solution (sBHI) (Remel) is used for liquid broth cultivation of H. influenzae. For induction of natural competence in H. influenzae, nutritional downshift is induced using M-IV medium as described previously. See Poje and Redfield, Methods Mol Med, Vol. 71, No., pp. 57-70 (2003). Kanamycin is added to growth media at 50 μg/mL (E. coli) or 5 μg/mL (H. influenzae) as required.
Antibiotic and substrate MICs are determined by broth microdilution using 2-fold dilution in HTM in accordance with the procedures established by the National Committee for Clinical Laboratory Standards (NCCLS). See NCCLS, Approved standard M7-A5, Wayne, Pa. (2003). PDF inhibitors are synthesized at the Novartis Institutes for BioMedical Research, Cambridge, Mass. All remaining antibiotics are obtained from Sigma (St. Louis, Mo.).

[1] = system: H. influenzae NB65044-CDS0011; test: Potentiation of antibiotic MIC by efflux inhibitor (two-axis 96-well plates); format: cell-based, Haemophilus influenzae; details: H. influenzae overexpressing AcrAB; data not shown
Procedure: H. influenzae NB65044-CDS0011 is used for H. influenzae testing. This strain has increased pump expression which is thought to result in more sensitive detection of pump inhibition.
H. influenzae: MIC determinations are conducted in 96 well sterile plates with a range of LBM415 along one axis and range of efflux inhibitor along the other axis. Medium used is HTM (Remel). Inoculum is set to approximately […] bacteria per well using the BBL prompt system.

[2] = system: E. coli strain NB27006 complemented with H. influenzae acrAB genes; test: Potentiation of antibiotic MIC by efflux inhibitor in E. coli carrying the H. influenzae acrAB genes; format: cell-based, Escherichia coli; details: E. coli complemented in trans with H. influenzae acrAB genes
Procedure: (§1) For E. coli testing, strain NB27006 is used. This strain is deficient in its native AcrAB pump (described in H Okusu et al. J. Bacteriol. 1996 178: 306-308) and is a suitable host for cloning the H. influenzae acrAB pump genes.
(§2) E. coli: MIC determines are conducted as described above except using Mueller-Hinton test medium.
Genes encoding H. influenzae AcrAB pump components are PCR amplified from NB65044 genomic DNA using the primers acrA prom F1 (5′-AATTA[…]-3′) (SEQ ID NO. 11) and acrBR3 […] 5′-[…]-3″) (SEQ ID NO. 12). The acrAB containing product is cloned into Topo PCR2.1 (Invitrogen) and transformed into Top10 competent cells (Invitrogen). An insert bearing plasmid is isolated and sequenced to ensure that mutations are not introduced during PCR and cloning. This plasmid is then transformed into E. coli strain NB27006, which lacks its native AcrAB-ToIC pump function.
Since efflux pumps are impacted by such factors as outer membrane permeability, and E. coli is thought to have a less permeable outer membrane than H. influenzae (possibly accounting for increased impact of efflux on drug resistance), it has reasoned that the detection of H. influenzae AcrAB pump inhibition might be more sensitive in an E. coli background. […] This is interesting in that the native E. coli AcrAB-ToIC pump does extrude tetracycline.

E. coli = test: MIC of LBM415 in E. coli with or without AcrAB-TolC pump function; format: cell-based; details: Escherichia coli
Procedure: as §1, §2
12). The acrAB containing product is cloned into Topo PCR2.1 (Invitrogen) and transformed into Top10 competent cells (Invitrogen). An insert bearing plasmid is isolated and sequenced to ensure that mutations are not introduced during PCR and cloning. This plasmid is then transformed into E. coli strain NB27006, which lacks its native AcrAB-ToIC pump function.
To further examine this, the H. influenzae acrAB genes are cloned and used to complement, in trans, an AcrAB pump deficiency in E. coli strain NB27006.

[3] = strain NB65016 (clinical isolate), read-out: MIC
[4] = strain NB65016-CDS0004, knockout acrB
[5] = strain NB65027 (clinical isolate), read-out: MIC
[6] = strain NB65027-CDS0003, knockout HI1462
[7] = strain NB65027-CDS0021, knockout acrB
[8] = strain NB65044 (Rd KW20, parent laboratory strain), read-out: MIC
[9] = strain NB65044-CDS0001 (NB65044 acrB::Km)
[10] = strain NB65044-CDS0020 (Table 1: NB65044 acrB::Km)
[11] = strain NB65051 (clinical isolate), read-out: MIC
[12] = strain NB65051-CDS0002, knockout acrB
[13] = strain NB65051-CDS0022, knockout HI1462
[14] = strain NB65063 (clinical isolate), read-out: MIC
[15] = strain NB65063-CDS0005, knockout acrB
[16] = strain NB65069 (clinical isolate), read-out: MIC
[17] = strain NB65069-CDS0007, knockout acrB
[18] = strain NB65076 (clinical isolate), read-out: MIC
[19] = strain NB65076-CDS0006, knockout acrB

Row | SMILES | effect of inactivation of HI1462 on susceptibility (H. influenzae) | MIC (H. influenzae; [3]) [µg/mL] | MIC (H. influenzae; [4]) [µg/mL] | MIC (H. influenzae; [5]) [µg/mL] | MIC (H. influenzae; [6]) [µg/mL] | MIC (H. influenzae; [7]) [µg/mL] | MIC (H. influenzae; [8]) [µg/mL] | MIC (H. influenzae; [9]) [µg/mL] | MIC (H. influenzae; [10]) [µg/mL] | MIC (H. influenzae; [11]) [µg/mL] | MIC (H. influenzae; [12]) [µg/mL] | MIC (H. influenzae; [13]) [µg/mL] | MIC (H. influenzae; [14]) [µg/mL] | MIC (H. influenzae; [15]) [µg/mL] | MIC (H. influenzae; [16]) [µg/mL] | MIC (H. influenzae; [17]) [µg/mL] | MIC (H. influenzae; [18]) [µg/mL] | MIC (H. influenzae; [19]) [µg/mL] | effect of insertional inactivation of acrB on susceptibility (H. influenzae) | potentiation of LBM415 activity [1] | other results
1 | CC[C@H]1OC(=O)[C@H](C)[C@@H](O[C@H]2C[C@@](C)(OC)[C@@H](O)[C@H](C)O2)[C@H](C)[C@@H](O[C@@H]2O[C@H](C)C[C@H](N(C)C)[C@H]2O)[C@](C)(O)C[C@@H](C)C(=O)[C@H](C)[C@@H](O)[C@]1(C)O [ERM, erythromycin] | increases susceptibility | 16 (≈ 21.8 µM) | 0.25 (≈ 0.341 µM) | 16 (≈ 21.8 µM) | 0.125 (≈ 0.17 µM) | 0.25 (≈ 0.341 µM) | 4 (≈ 5.45 µM) | 0.25 (≈ 0.341 µM) | 0.25 (≈ 0.341 µM) | 16 (≈ 21.8 µM) | 0.25 (≈ 0.341 µM) | 0.125 (≈ 0.17 µM) | 8 (≈ 10.9 µM) | 0.25 (≈ 0.341 µM) | 16 (≈ 21.8 µM) | 0.125 (≈ 0.17 µM) | 16 (≈ 21.8 µM) | 0.125 (≈ 0.17 µM) | increases susceptibility | – | –
2 | N=C(N)NCCC[C@H](NC(=O)[C@@H](N)Cc1ccccc1)C(=O)Nc1ccc2ccccc2c1 [MC-207,110] (H-Phe-Arg-βNA) | – | – | – | – | – | – | – | – | – | – | – | – | – | – | – | – | – | – | – | potentiation | potentiation of clindamycin [1]: potentiate; potentiation of tetracycline (pump non-substrate) [1]: no potentiation; potentiation of LBM415 [2]: potentiating activity; potentiation of clindamycin [2]: potentiating activity; potentiation of tetracycline [2]: no potentiation
3 | CN(C)[C@@H]1C(O)=C(C(N)=O)C(=O)[C@@]2(O)C(O)=C3C(=O)c4c(O)cccc4[C@@](C)(O)[C@H]3C[C@@H]12 [TET, tetracycline] | – | – | 1 (≈ 2.25 µM) | – | 1 (≈ 2.25 µM) | 0.5 (≈ 1.13 µM) | – | 0.5 (≈ 1.13 µM) | 1 (≈ 2.25 µM) | – | 1 (≈ 2.25 µM) | 1 (≈ 2.25 µM) | – | 1 (≈ 2.25 µM) | – | 1 (≈ 2.25 µM) | – | 1 (≈ 2.25 µM) | – | – | MIC (H. influenzae; strain NB65044-CDS0008, knockout acrR): 0.5 µg/mL (≈ 1.13 µM); MIC (H. influenzae; strain NB65044-CDS0011 (acrR mutant selected on 8 μg/mL LBM415, stop codon)): 1 µg/mL (≈ 2.25 µM); MIC (H. influenzae; strain NB65044-CDS0014 (acrR mutant selected on 8 μg/mL LBM415, L→P)): 1 µg/mL (≈ 2.25 µM)
4 | COC(=O)[C@H]1[C@H]2C[C@@H]3c4[nH]c5cc(OC)ccc5c4CCN3C[C@H]2C[C@@H](OC(=O)c2cc(OC)c(OC)c(OC)c2)[C@@H]1OC [Reserpine] | – | – | – | – | – | – | – | – | – | – | – | – | – | – | – | – | – | – | – | did not potentiate | potentiation of clindamycin [1]: did not potentiate
5 | CCCC[C@H](CN(O)C=O)C(=O)N1CCC[C@H]1C(=O)Nc1ccc(F)c[n+]1[O-] [LBM415] | increases susceptibility | 16 (≈ 40.4 µM) | 0.25 (≈ 0.631 µM) | 32 (≈ 80.7 µM) | 0.5 (≈ 1.26 µM) | 0.5 (≈ 1.26 µM) | 4 (≈ 10.1 µM) | 0.25 (≈ 0.631 µM) | 0.125 (≈ 0.315 µM) | 32 (≈ 80.7 µM) | 0.25 (≈ 0.631 µM) | 0.25 (≈ 0.631 µM) | 32 (≈ 80.7 µM) | 1 (≈ 2.52 µM) | 16 (≈ 40.4 µM) | 0.25 (≈ 0.631 µM) | 16 (≈ 40.4 µM) | 0.25 (≈ 0.631 µM) | significantly increases susceptibility | – | MIC (H. influenzae; strain NB65062 (clinical isolate, hyper-susceptible, acrA deletion), read-out: MIC): ≤ 0.25 µg/mL; MIC (H. influenzae; strain NB65062-CDS0037 (NB65062 complemented for acrA deficiency), read-out: MIC): 8 µg/mL (≈ 20.2 µM); MIC (H. influenzae; strain NB65062-CDS0038 (NB65062 complemented for acrA deficiency), read-out: MIC): 8 µg/mL (≈ 20.2 µM); decrease in susceptibility (H. influenzae; acrR insertionally inactivated in NB65044 (NB65044-CDS0008) versus parent): 2 fold; decrease in susceptibility (H. influenzae; two acrR mutants of NB65044 selected on 8 μg/mL LBM415 versus parent): 8 fold; MIC (E. coli; E. coli strain NB27006 complemented with the H. influenzae acrAB genes): 32 µg/mL; MIC (E. coli; E. coli strains deficient in AcrAB-ToIC pump function, typical value): ~1 µg/mL; MIC (E. coli; E. coli with native AcrAB-ToIC pump, typical value): ≥ 128 µg/mL
6 | O=C(N[C@H](CO)[C@H](O)c1ccc([N+](=O)[O-])cc1)C(Cl)Cl [chloramphenicol] | – | – | – | – | – | – | – | – | – | – | – | – | – | – | – | – | – | – | unaffected | – | –
